Measured values: patent publication US20240368096A1 (Enanta Pharmaceuticals, Inc., priority 2022, published 2024)

Each compound was assayed on HBV (assay: HBV infection in HepG2-NTCP cells (HBeAg AlphaLISA in supernatants)). Details: Hepatitis B virus, 192 h; HBV infection of HepG2-NTCP cells; HBeAg in supernatants at day 8 post infection; read-out: Cellular EC50.
Type: cell-based
Experimental: HepG2-NTCP A3 cells were maintained in DMEM media supplemented with GlutaMAX™ 10% fetal bovine serum, 1% penicillin/streptomycin, and 5 μg/mL puromycin at 37° C. in a humidified atmosphere with 5% CO2 in a collagen-coated tissue culture flask.
HepG2-NTCP cells were seeded in 384 well plate containing 16,000 cells/well two days prior to the infection. On the day of infection, compounds were 3-fold serially diluted in DMSO and pre-incubated with HepG2-NTCP cells for two hours before purified HBV addition. HBV infection was carried out at 2000 GE/cell with 4% PEG, and the final concentration of DMSO is 0.5%. On day one post infection, HBV-containing media was aspirated, cells were washed once with PBS and then maintained in 2.5% DMSO containing media for the remainder of the assay.
Supernatants from infected HepG2-NTCP cells were collected at day 8 post infection, and the amount of viral antigen HBeAg was measured by HBeAg AlphaLISA detection kit (PerkinElmer) following the manufacturer's recommended protocol. Irrespective of readout, compound concentrations that reduce viral product accumulation in supernatants by […] relative to DMSO controls (EC50) are reported. EC50 ranges are as follows: A<0.1 μM; B 0.1-1 μM; C>1 μM.

Row | Structure (SMILES) | EC50
1 | CC(C)C[C@@H]1CN(c2ccccc2)c2cc(Cl)c(-c3ccc(F)c(C(=O)O)c3)cc2S(=O)(=O)N1C [Example 59, (R)-5-(7-chloro-3-isobutyl-2-methyl-1,1-dioxido-5-phenyl-2,3,4,5-tetrahydrobenzo[f][1,2,5]thiadiazepin-8-yl)-2-fluorobenzoic acid] | < 0.1 µM
2 | CC(C)C[C@@H]1CN(c2ccccc2)c2cc(Cl)c(-c3ccc(Cl)c(C(=O)O)c3)cc2S(=O)(=O)N1C [Example 60] | < 0.1 µM
3 | CC(C)[C@@H]1CN(c2ccccc2)c2cc(Cl)c(-c3ccc(F)c(C(=O)O)c3)cc2S(=O)(=O)N1C [Example 61, (R)-5-(7-chloro-3-isopropyl-2-methyl-1,1-dioxido-5-phenyl-2,3,4,5-tetrahydrobenzo[f][1,2,5]thiadiazepin-8-yl)-2-fluorobenzoic acid] | 0.1 to 1 µM
4 | CC(C)[C@@H]1CN(c2ccccc2)c2cc(Cl)c(-c3ccc(Cl)c(C(=O)O)c3)cc2S(=O)(=O)N1C [Example 62] | < 0.1 µM
5 | CC(C)[C@@H]1CN(c2ccccc2)c2cc(Cl)c(-c3cc(F)c(F)c(C(=O)O)c3)cc2S(=O)(=O)N1C [Example 63] | < 0.1 µM
6 | CN1[C@H](C2CC2)CN(c2ccccc2)c2cc(Cl)c(-c3ccc(F)c(C(=O)O)c3)cc2S1(=O)=O [Example 64, (R)-5-(7-chloro-3-cyclopropyl-2-methyl-1,1-dioxido-5-phenyl-2,3,4,5-tetrahydrobenzo[f][1,2,5]thiadiazepin-8-yl)-2-fluorobenzoic acid] | 0.1 to 1 µM
7 | CN1[C@H](C2CC2)CN(c2ccccc2)c2cc(Cl)c(-c3ccc(Cl)c(C(=O)O)c3)cc2S1(=O)=O [Example 65] | < 0.1 µM
8 | CN1[C@H](C2CCCC2)CN(c2ccccc2)c2cc(Cl)c(-c3ccc(F)c(C(=O)O)c3)cc2S1(=O)=O [Example 66] | 0.1 to 1 µM
9 | CN1[C@H](C2CCCC2)CN(c2ccccc2)c2cc(Cl)c(-c3ccc(Cl)c(C(=O)O)c3)cc2S1(=O)=O [Example 67] | < 0.1 µM
10 | CC[C@@H](C)[C@@H]1CN(c2ccccc2)c2cc(Cl)c(-c3ccc(F)c(C(=O)O)c3)cc2S(=O)(=O)N1C [Example 68] | < 0.1 µM
11 | CN1C(CC(F)(F)F)CN(c2ccccc2)c2cc(Cl)c(-c3ccc(F)c(C(=O)O)c3)cc2S1(=O)=O (stereo not drawn) [Example 69] | > 1 µM
12 | CCCCC[C@@H]1CN(c2ccccc2)c2cc(Cl)c(-c3ccc(F)c(C(=O)O)c3)cc2S(=O)(=O)N1C [Example 70] | > 1 µM
13 | CCCCC1CN(c2ccccc2)c2cc(Cl)c(-c3ccc(F)c(C(=O)O)c3)cc2S(=O)(=O)N1C (stereo not drawn) [Example 71] | 0.1 to 1 µM
14 | CN1[C@H](CC2CC2)CN(c2ccccc2)c2cc(Cl)c(-c3ccc(F)c(C(=O)O)c3)cc2S1(=O)=O [Example 73] | < 0.1 µM
15 | CN1[C@H](CC2CC2)CN(c2ccccc2)c2cc(Cl)c(-c3cncc(C(=O)O)c3)cc2S1(=O)=O [Example 74] | > 1 µM
16 | CN1[C@H](CC2CCC2)CN(c2ccccc2)c2cc(Cl)c(-c3ccc(F)c(C(=O)O)c3)cc2S1(=O)=O [Example 75] | 0.1 to 1 µM
17 | CN1[C@H](CC2CCC2)CN(c2ccccc2)c2cc(Cl)c(-c3ccc(Cl)c(C(=O)O)c3)cc2S1(=O)=O [Example 76] | 0.1 to 1 µM
18 | CN1C(CC2CCCC2)CN(c2ccccc2)c2cc(Cl)c(-c3ccc(F)c(C(=O)O)c3)cc2S1(=O)=O (stereo not drawn) [Example 77] | 0.1 to 1 µM
19 | CN1C(CC2CCCC2)CN(c2ccccc2)c2cc(Cl)c(-c3ccc(Cl)c(C(=O)O)c3)cc2S1(=O)=O (stereo not drawn) [Example 78] | 0.1 to 1 µM
20 | CN1C(c2cnn(C)c2)CN(c2ccccc2)c2cc(Cl)c(-c3ccc(F)c(C(=O)O)c3)cc2S1(=O)=O (stereo not drawn) [Example 79] | 0.1 to 1 µM
21 | CN1[C@H](C2CCC2)CN(c2ccccc2)c2cc(Cl)c(-c3ccc(F)c(C(=O)O)c3)cc2S1(=O)=O [Example 80, (R)-5-(7-chloro-3-cyclobutyl-2-methyl-1,1-dioxido-5-phenyl-2,3,4,5-tetrahydrobenzo[f][1,2,5]thiadiazepin-8-yl)-2-fluorobenzoic acid] | < 0.1 µM

Row | Structure (SMILES) | EC50
22 | CN1[C@H](C2CCC2)CN(c2ccccc2)c2cc(Cl)c(-c3ccc(Cl)c(C(=O)O)c3)cc2S1(=O)=O [Example 81] | < 0.1 µM
23 | CCCCCCCC[C@@H]1CN(c2ccccc2)c2cc(Cl)c(-c3ccc(F)c(C(=O)O)c3)cc2S(=O)(=O)N1C [Example 82, (R)-5-(7-chloro-2-methyl-3-octyl-1,1-dioxido-5-phenyl-2,3,4,5-tetrahydrobenzo[f][1,2,5]thiadiazepin-8-yl)-2-fluorobenzoic acid] | > 1 µM
24 | CCCCCCCC[C@@H]1CN(c2ccccc2)c2cc(Cl)c(-c3cc(F)c(F)c(C(=O)O)c3)cc2S(=O)(=O)N1C [Example 83] | > 1 µM
25 | CCCCCCCC[C@@H]1CN(c2ccccc2)c2cc(Cl)c(-c3ccc(C(=O)O)s3)cc2S(=O)(=O)N1C [Example 84] | > 1 µM
26 | CN1[C@H](C(C)(C)C)CN(c2ccccc2)c2cc(Cl)c(-c3ccc(F)c(C(=O)O)c3)cc2S1(=O)=O [Example 85, (R)-5-(3-(tert-butyl)-7-chloro-2-methyl-1,1-dioxido-5-phenyl-2,3,4,5-tetrahydrobenzo[f][1,2,5]thiadiazepin-8-yl)-2-fluorobenzoic acid] | < 0.1 µM
27 | CN1C(C23CC(C2)C3)CN(c2ccccc2)c2cc(Cl)c(-c3ccc(F)c(C(=O)O)c3)cc2S1(=O)=O (stereo not drawn) [Example 86] | 0.1 to 1 µM
28 | CN1C(C23CC(C(F)(F)F)(C2)C3)CN(c2ccccc2)c2cc(Cl)c(-c3ccc(F)c(C(=O)O)c3)cc2S1(=O)=O (stereo not drawn) [Example 87] | 0.1 to 1 µM
29 | CO[C@@H](C)[C@@H]1CN(c2ccccc2)c2cc(Cl)c(-c3ccc(F)c(C(=O)O)c3)cc2S(=O)(=O)N1C [Example 88, 5-((S)-7-chloro-3-((S)-1-methoxyethyl)-2-methyl-1,1-dioxido-5-phenyl-2,3,4,5-tetrahydrobenzo[f][1,2,5]thiadiazepin-8-yl)-2-fluorobenzoic acid] | > 1 µM
30 | CCO[C@@H](C)[C@@H]1CN(c2ccccc2)c2cc(Cl)c(-c3ccc(F)c(C(=O)O)c3)cc2S(=O)(=O)N1C [Example 89] | 0.1 to 1 µM
31 | C[C@H](OCc1ccccc1)[C@@H]1CN(c2ccccc2)c2cc(Cl)c(-c3ccc(F)c(C(=O)O)c3)cc2S(=O)(=O)N1C [Example 90] | 0.1 to 1 µM
32 | C[C@H](OC(C)(C)C)[C@@H]1CN(c2ccccc2)c2cc(Cl)c(-c3ccc(F)c(C(=O)O)c3)cc2S(=O)(=O)N1C [Example 91] | > 1 µM
33 | CCO[C@H](C)[C@@H]1CN(c2ccccc2)c2cc(Cl)c(-c3ccc(F)c(C(=O)O)c3)cc2S(=O)(=O)N1C [Example 92] | 0.1 to 1 µM
34 | CCOC[C@@H]1CN(c2ccccc2)c2cc(Cl)c(-c3ccc(F)c(C(=O)O)c3)cc2S(=O)(=O)N1C [Example 93, (S)-5-(7-chloro-3-(ethoxymethyl)-2-methyl-1,1-dioxido-5-phenyl-2,3,4,5-tetrahydrobenzo[f][1,2,5]thiadiazepin-8-yl)-2-fluorobenzoic acid] | 0.1 to 1 µM
35 | COC[C@@H]1CN(c2ccccc2)c2cc(Cl)c(-c3ccc(F)c(C(=O)O)c3)cc2S(=O)(=O)N1C [Example 95] | 0.1 to 1 µM
36 | CC(C)OC[C@@H]1CN(c2ccccc2)c2cc(Cl)c(-c3ccc(F)c(C(=O)O)c3)cc2S(=O)(=O)N1C [Example 96, (S)-5-(7-chloro-3-(isopropoxymethyl)-2-methyl-1,1-dioxido-5-phenyl-2,3,4,5-tetrahydrobenzo[f][1,2,5]thiadiazepin-8-yl)-2-fluorobenzoic acid] | 0.1 to 1 µM
37 | COCOC[C@@H]1CN(c2ccccc2)c2cc(Cl)c(-c3ccc(F)c(C(=O)O)c3)cc2S(=O)(=O)N1C [Example 97, (S)-5-(7-chloro-3-((methoxymethoxy)methyl)-2-methyl-1,1-dioxido-5-phenyl-2,3,4,5-tetrahydrobenzo[f][1,2,5]thiadiazepin-8-yl)-2-fluorobenzoic acid] | 0.1 to 1 µM
38 | CN1[C@H](CO)CN(c2ccccc2)c2cc(Cl)c(-c3ccc(F)c(C(=O)O)c3)cc2S1(=O)=O [Example 98, (S)-5-(7-chloro-3-(hydroxymethyl)-2-methyl-1,1-dioxido-5-phenyl-2,3,4,5-tetrahydrobenzo[f][1,2,5]thiadiazepin-8-yl)-2-fluorobenzoic acid] | > 1 µM
39 | CN1[C@H](CN=[N+]=[N-])CN(c2ccccc2)c2cc(Cl)c(-c3ccc(F)c(C(=O)O)c3)cc2S1(=O)=O [Example 99, (S)-5-(3-(azidomethyl)-7-chloro-2-methyl-1,1-dioxido-5-phenyl-2,3,4,5-tetrahydrobenzo[f][1,2,5]thiadiazepin-8-yl)-2-fluorobenzoic acid] | > 1 µM
40 | CN1[C@H](COc2ccccc2)CN(c2ccccc2)c2cc(Cl)c(-c3ccc(F)c(C(=O)O)c3)cc2S1(=O)=O [Example 100, (S)-5-(7-chloro-2-methyl-1,1-dioxido-3-(phenoxymethyl)-5-phenyl-2,3,4,5-tetrahydrobenzo[f][1,2,5]thiadiazepin-8-yl)-2-fluorobenzoic acid] | > 1 µM
41 | CN1[C@H](COC(C)(C)C)CN(c2ccccc2)c2cc(Cl)c(-c3ccc(F)c(C(=O)O)c3)cc2S1(=O)=O [Example 101, (S)-5-(3-(tert-butoxymethyl)-7-chloro-2-methyl-1,1-dioxido-5-phenyl-2,3,4,5-tetrahydrobenzo[f][1,2,5]thiadiazepin-8-yl)-2-fluorobenzoic acid] | 0.1 to 1 µM
42 | CN1[C@H](COCc2ccccc2)CN(c2ccccc2)c2cc(Cl)c(-c3ccc(F)c(C(=O)O)c3)cc2S1(=O)=O [Example 102] | > 1 µM
